{"source": "patent US10251867B2", "about": "“Dosing regimen for a selective S1P1 receptor agonist” (ACTELION PHARMACEUTICALS LTD, priority 2008, dated 2019)", "key": {"[1]": {"test_system": "multiple sclerosis patients", "conditions": "cited from earlier work"}, "humans [2]": {"test_system": "humans", "conditions": "cited from earlier work"}, "healthy male subjects": {"test_system": "healthy male subjects", "experiment": "Single-ascending dose (SAD) study AC-058-101, heart rate", "format": "in vivo, human", "conditions": "without up-titration; 50 mg SAD, Day 1", "description": "In the single-ascending dose (SAD) study (AC-058-101), Compound 1 was administered orally to 6 groups of […] (aged 21-47 years). Doses of 1, 3, 8, 20, 50 and 75 mg were given to sequential groups of 8 subjects (6 on active drug and 2 on placebo) in a randomized, double-blind, placebo-controlled design. The dose of 20 mg was given once in the fasted and once in the fed condition, to assess any food effects on the pharmacokinetics of Compound 1. ECGs were recorded, clinical laboratory parameters, vital signs, pulmonary function, neurological assessments (in the 75-mg dose group), plasma levels of Compound 1, and peripheral lymphocyte counts (total and subsets) were determined. All 48 randomized subjects were evaluable and no subjects withdrew or discontinued from the study. All subjects treated with Compound 1 (n=36) were included in the pharmacokinetic (PK) and pharmacodynamic (PD) analysis."}, "[3]": {"test_system": "healthy male and female subjects", "experiment": "Multiple-ascending dose (MAD) study AC-058-102 Part A, heart rate without up-titration", "format": "in vivo, human", "conditions": "Day 1, Part A", "description": "In Part A of the multiple-ascending dose (MAD) study (AC-058-102), Compound 1 was administered orally with doses of 5, 10, and 20 mg once-daily for 7 days to healthy male and female subjects (aged 22-58 years, 1:1 sex ratio) in a randomized, double-blind, placebo-controlled design. At each dose level, a group of 10 subjects were randomized to Compound 1 (8), or placebo (2). In Part A, all 30 randomized subjects completed the study and the 24 subjects who were treated with Compound 1 were included in the PK analysis."}, "subjects": {"test_system": "subjects", "experiment": "MAD study AC-058-102 Part B, up-titration scheme (10/20/40 mg), heart rate and ECG", "format": "in vivo, human", "conditions": "for Mean HR reduction (2.5 h post-dose vs pre-dose): with up-titration, Part B 40-mg dose group", "description": "In Part B of the MAD study, an up-titration scheme was implemented in order to reduce first-dose effects of Compound 1 on sinus node automaticity and atrioventricular- (AV-) conduction. Treatment with Compound 1 started for 4 days with 10 mg once daily, followed by 4 days with 20 mg once daily, and 7 days with 40 mg once daily. Seventeen subjects (nine females and eight males, aged 18-43 years) were randomized. Thirteen subjects received active treatment and four subjects received matching placebo. A total of 15 out of the 17 subjects completed the study as scheduled. […] The 11 subjects treated with 40-mg Compound 1 who completed the study were included in the PK analysis of Compound 1."}, "humans [4]": {"test_system": "humans", "format": "in vivo, human", "text": "All of these effects wane with repeated dosing. […] The acute effects on heart rate, atrioventricular conduction, or fatigue and dizziness, although not seriously adverse, are undesirable, and methods to minimize these effects would be valuable for maximizing the tolerability and safety of Compound 1, and other selective S1P1 receptor agonists, and minimizing associated monitoring requirements, in the early phase of dosing initiation, or, after a drug interruption, at re-initiation of drug therapy.\nDesensitization has been sustained over this 24-hour dosing interval. […] Desensitization has not been sustained over this 7-day dosing interval of the 20-mg dose. […]"}}, "note": "Like-named read-outs stand apart in the source and are kept apart here."}
{"smiles": "CCCCCCCCc1ccc(CCC(N)(CO)CO)cc1", "note": "[FTY720]", "values": [{"measurement": "Rate of clinical relapses", "setting": "[1]", "value": "reduce the rate of clinical relapses"}, {"measurement": "Effect on heart rate", "setting": "humans [2]", "value": "reduces heart rate in humans"}]}
{"smiles": "CCC/N=C1\\S/C(=C\\c2ccc(OC[C@H](O)CO)c(Cl)c2)C(=O)N1c1ccccc1C", "note": "[Compound 1, (R)-5-[3-chloro-4-(2,3-dihydroxy-propoxy)-benz[Z]ylidene]-2-([Z]-propylimino)-3-o-tolyl-thiazolidin-4-one]", "values": [{"measurement": "Mean HR reduction (2.5 h post-dose vs baseline)", "setting": "healthy male subjects", "value": 18, "unit": "bpm"}, {"measurement": "Mean HR reduction (2.5 h post-dose vs baseline)", "setting": "[3]; 10 mg", "value": 14, "unit": "bpm"}, {"measurement": "Mean HR reduction (2.5 h post-dose vs baseline)", "setting": "[3]; 20 mg", "value": 22, "unit": "bpm"}, {"measurement": "Second or third degree AV-blocks", "setting": "subjects; Part B", "value": "No second or third degree AV-blocks were observed"}, {"measurement": "Effects on other ECG variables", "setting": "subjects; Part B, multiple dosing", "value": "No relevant effects on other ECG variables were recorded"}, {"measurement": "Discontinuation of dosing due to adverse events", "setting": "subjects; Part B, 13 subjects on active treatment", "value": "Dosing was discontinued in two subjects on active treatment due to adverse events"}, {"measurement": "AV-block first degree", "setting": "subjects; Part B, after first 10 mg dose on Day 1", "value": "only one subject reported a transient AV-block first degree"}, {"measurement": "Mean HR reduction at 2.5 h post-dose vs pre-dose", "setting": "subjects; Part B, day 2 (10 mg)", "value": 2, "unit": "bpm"}, {"measurement": "Mean HR reduction at 2.5 h post-dose vs pre-dose", "setting": "subjects; Part B, day 3 (10 mg)", "value": 1, "unit": "bpm"}, {"measurement": "Mean HR reduction at 2.5 h post-dose vs pre-dose", "setting": "subjects; Part B, day 4 (10 mg)", "value": 1, "unit": "bpm"}, {"measurement": "Mean HR reduction at 2.5 h post-dose vs pre-dose", "setting": "subjects; Part B, day 6 (20 mg)", "value": 4, "unit": "bpm"}, {"measurement": "Mean HR reduction at 2.5 h post-dose vs pre-dose", "setting": "subjects; Part B, day 7 (20 mg)", "value": 3, "unit": "bpm"}, {"measurement": "Mean HR reduction at 2.5 h post-dose vs pre-dose", "setting": "subjects; Part B, day 8 (20 mg)", "value": 3, "unit": "bpm"}, {"measurement": "Mean HR reduction (2.5 h post-dose vs pre-dose)", "setting": "subjects; 10 mg, Day 1", "value": 14, "unit": "bpm"}, {"measurement": "Mean HR reduction (2.5 h post-dose vs pre-dose)", "setting": "subjects; 20 mg, Day 5", "value": 9, "unit": "bpm"}, {"measurement": "Mean HR reduction (2.5 h post-dose vs pre-dose)", "setting": "subjects; 40 mg, Day 9", "value": 4, "unit": "bpm"}, {"measurement": "Acute effects on heart rate and rhythm and fatigue/dizziness, dose comparison", "setting": "humans [4]; in vivo", "value": "milder at 10 mg than at 20 mg"}, {"measurement": "Effect on heart rate", "setting": "humans [4]; in vivo", "value": "transiently reduces heart rate"}, {"measurement": "Fatigue or dizziness", "setting": "humans [4]; in vivo", "value": "Occasional fatigue or dizziness"}, {"measurement": "Heart rhythm", "setting": "humans [4]; in vivo", "value": "irregular heart rhythm (so-called Wenckebach rhythm)"}, {"measurement": "PR interval in the electrocardiogram (ECG)", "setting": "humans [4]; in vivo", "value": "transient increases in the PR interval"}, {"measurement": "Time of maximal heart rate effect after administration", "setting": "humans [4]; in vivo", "value": "1 to 3", "unit": "h"}, {"measurement": "Acute heart rate reduction", "setting": "humans [4]; in vivo, po", "value": "results in an acute heart rate reduction on Day 1"}, {"measurement": "Acute heart rate reduction compared to the pre-dose value", "setting": "humans [4]; in vivo, po", "value": "no longer observed"}, {"measurement": "Number of peripheral blood lymphocytes", "setting": "humans [4]; repeated daily oral dosing of 5 mg or more", "value": "consistent, sustained, and dose-dependent reduction in the number of peripheral blood lymphocytes"}]}
